Results from PubChem BioAssay (NCI).
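Each compound was tested at five concentrations against cells in 96-well plates for 48 hours. TGI is the concentration that stops growth completely.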

Key:
Test in all cases: growth of human tumour cells (NCI), 48 h
[1] = test system: UO-31 renal
[2] = test system: CCRF-CEM leukemia
[3] = test system: 786-0 renal
[4] = test system: SNB-75 CNS
[5] = test system: MDA-MB-231 breast
[6] = test system: M14 melanoma
[7] = test system: NCI/ADR-RES ovarian
[8] = test system: MDA-MB-435
[9] = test system: SF-295 CNS
[10] = test system: HCC-2998 colon

Compound | TGI [1] [µM] | TGI [2] [µM] | TGI [3] [µM] | TGI [4] [µM] | TGI [5] [µM] | TGI [6] [µM] | TGI [7] [µM] | TGI [8] [µM] | TGI [9] [µM] | TGI [10] [µM]
CN(C)Cc1c(O)ccc2c1c1c(n2C)C(=O)c2ccccc2C1=O | 37.5 | > 100 | > 100 | 51.8 | > 100 | > 100 | 18.3 | 21.1 | 84.6 | 13.9
COc1cc(C2S/C(=C/c3ccccc3)C(=O)N2Cc2ccccc2)cc(OC)c1OC (stereo not given) | > 100 | 87.2 | > 100 | 73.3 | > 100 | > 100 | > 100 | > 100 | > 100 | 69.4
Cc1ccc(S(=O)(=O)N2CCC[C@@H]2C(=O)O[C@@H]2CCC3CC=CC32)cc1 (stereo not given in full) | 41.5 | > 100 | 55.4 | > 100 | > 100 | > 100 | 63.2 | > 100 | > 100 | > 100
COc1cc(C2c3cc4c(cc3OC(NNc3ccccc3)C2C)OCO4)cc(OC)c1OC (stereo not given) | 6.79 | > 27.3 | 12.8 | > 62.7 | > 63.4 | 22.7 | 58.6 | 1.31 | 5.11 | 3.96
CCOC(=O)c1[nH]cc(C)c1-c1cccn1-c1ccc(Cl)cc1[N+](=O)[O-] | 54.9 | 64.3 | 36.1 | 56.1 | 27.5 | 41 | 52.9 | 56.6 | 83 | 66.3
CC(=O)OCC1OC(n2cnc3nc(Br)[nH]c(=O)c32)C(OC(C)=O)C1OC(C)=O (stereo not given) | > 100 | > 100 | > 100 | > 100 | > 100 | > 100 | > 100 | > 100 | > 100 | > 100
C=C(C)[C@@H](O)[C@H](O)C[C@H](C)C1CC[C@]2(C)C1=CC[C@@H]1[C@@]3(C)CC[C@@H](OC(C)=O)C(C)(C)[C@@H]3C[C@@H](OC3OC(COC(C)=O)C(O)C(O)C3O)[C@]12C (stereo not given in full) | 12.4 | 5.95 | 11.4 | 8.32 | 6.64 | 7.38 | 32 | 4.42 | 4.69 | 1.69
N#Cc1c(N)oc(-c2ccc([N+](=O)[O-])cc2)c1C#N | 42.4 | > 100 | > 100 | 47.1 | 64.3 | > 100 | 44 | > 100 | 55.3 | > 100
CC(C)NC(=O)OCc1c(COC(=O)NC(C)C)c(-c2ccc[n+](COC(=O)Cc3ccccc3)c2)n2c1CCC2 | 70.8 | > 100 | 44.4 | > 100 | 74.7 | > 100 | > 100 | > 100 | > 100 | > 100
Cc1c(Cc2ccccc2)n(C(C)OCCN(OC(=O)Oc2ccccc2)C(=O)Oc2ccccc2)c(=O)[nH]c1=O (stereo not given) | 29.3 | 50 | 34.3 | 20.6 | 38.5 | 32 | 39.1 | 56.5 | 30.8 | 31.5
CNC(=O)N(CCC#N)CCN(C(=O)NC)c1ccccc1 | > 100 | > 100 | > 100 | > 100 | > 100 | > 100 | > 100 | > 100 | > 100 | > 100
Cn1c(-c2ccc(-c3cc(-c4cccs4)c(-c4cccs4)n3C)cc2)cc(-c2cccs2)c1-c1cccs1 | > 100 | > 100 | > 100 | > 100 | > 100 | > 100 | > 100 | > 100 | > 100 | > 100
CC(C)(C)COC(=O)C(C)(C)NC(=O)C(CC(=O)OCc1ccccc1)NC(=O)OCc1ccccc1 (stereo not given) | 70.7 | > 100 | > 100 | > 100 | > 100 | > 100 | > 100 | 89.9 | > 100 | > 100
Cn1c2ccc(F)cc2c2ccc3c(c21)C(=O)C=CC3=O | 14.9 | 5.27 | 8.21 | 97.8 | 16.5 | 27.3 | 59.6 | 38.1 | > 100 | 67.7
CC(C)=CC1C(C(=O)Oc2ccccc2C(C)C)C1(C)C (stereo not given) | 34.6 | 59.6 | 42.5 | 62 | 52 | > 100 | > 100 | > 100 | 33.8 | 33.4
CCOC(=O)/C=C/C(=O)O/C=C/[N+](=O)[O-] | > 100 | > 100 | > 100 | > 100 | > 100 | > 100 | > 100 | > 100 | > 100 | > 100
